Counter-ions that a name gives are not always drawn.
How the values were obtained:
Format in all cases: in vivo
Cercospora arachidicola = assay: Peanut early leafspot control on sprayed peanut seedlings (Example 84); conditions: 100 ppm spray, day before inoculation; for pest or weed control at 100 ppm: Mycosphaerella arachidis, 360 h, read-out: % Control Peanut Easly Leafspot
Method: These suspensions were sprayed to the point of run-off on peanut seedlings. The following day, the plants were inoculated with a spore suspension of Cercospora arachidicola, causal agent of peanut early leafspot, and incubated in a saturated humidity chamber at 27° for 24 hours and then in a growth room for an additional 14 days, when disease ratings were made. Treated plants from successful treatments had few or no leafspots while the untreated plants had numerous leafspots.

Venturia inaequalis = assay: Apple scab control on sprayed apple seedlings (Example 82); conditions: Venturia inaequalis, 100 ppm spray, day before inoculation
Method: These suspensions were sprayed to the point of run-off on apple seedlings. The following day, the plants were inoculated with a spore suspension of the fungus Venturia inaequalis, causal agent of apple scab, and incubated in a saturated humidity chamber at 20° for 24 hours and then in a growth room for an additional 10-12 days. Treated plants from successful treatments had fewer apple scab lesions when compared to untreated plants which were covered with scab lesions. Phytotoxicity expressed as growth reduction was observed on some of the plants in association with disease control.

[1] = tested on: Puccinia recondita var. tritici; assay: Wheat leaf rust control on sprayed wheat seedlings (Example 79); conditions: 100 ppm spray, day before inoculation; for pest or weed control at 100 ppm: Puccinia recondita, 168 h
Method: The compounds of this invention were dissolved in acetone in an amount equal to 6% of the final volume and then suspended at a concentration of 100 ppm in purified water containing 250 ppm of the surfactant TREM 014 (polyhydric alcohol esters). These suspensions were sprayed to the point of run-off on wheat seedlings. The following day, the plants were inoculated with a spore suspension of Puccinia recondita var. tritici, causal agent of wheat leaf rust, and incubated in a saturated humidity chamber at 20° for 24 hours and then in a growth room for an additional 7 days, when disease ratings were made. Treated plants from successful treatments had few or no rust pustules while the untreated plants had numerous rust pustules on each leaf.

Pyricularia oryzae = assay: whole plant or invertebrate; conditions: for pest or weed control at 100 ppm: Pyricularia oryzae, 168 h, read-out: % Control of Rice Blast, 100 ppm spray, day before inoculation; for % Control of Rice Blast: 100 ppm spray, day before inoculation
Rhizoctonia solani = assay: Rice sheath blight control on sprayed rice seedlings (Example 87); conditions: 100 ppm spray, day before inoculation; for pest or weed control at 100 ppm: Rhizoctonia solani, 168 h
Method: The compounds of the previous examples were again dissolved in acetone in an amount equal to 6% of the final volume and then suspended at a concentration of 100 ppm in purified water containing 250 ppm of the surfactant TREM 014 (polyhydric alcohol esters). This suspension was sprayed to the point of run-off on rice seedlings. The following day, the plants were inoculated with a mixture of bran and the mycelium of Rhizoctonia solani, causal agent of sheath blight of rice, and incubated in a growth room for 7 days. Disease ratings were then made. Treated plants from successful treatments had little sheath blight in contrast to untreated plants which were covered with sheath blight.

Phytophthora infestans = assay: whole plant or invertebrate; conditions: for pest or weed control at 100 ppm: Phytophthora infestans, in Solanum lycopersicum, 168 h, read-out: % Control of Tomato Late Blight, 100 ppm spray, day before inoculation; for % Control of Tomato Late Blight: 100 ppm spray, day before inoculation
Helminthosporium maydis = assay: Southern corn leaf blight control on sprayed corn seedlings (Example 83); conditions: 100 ppm spray, day before inoculation; for pest or weed control at 100 ppm: Bipolaris maydis, 192 h
Method: The compounds of the previous examples were again dissolved in acetone in an amount equal to 6% of the final volume and then suspended at a concentration of 100 ppm in purified water containing 250 ppm of the surfactant TREM 014 (polyhydric alcohol esters). These suspensions were sprayed to the point of run-off on corn seedlings. The following day, the plants were inoculated with a spore suspension of Helminthosporium maydis, causal agent of southern corn leaf blight, and incubated in a saturated humidity chamber at 20° for 24 hours and then in a growth room for an additional 7 days, when disease ratings were made. Treated plants from successful treatments had few or no lesions while the untreated plants had numerous lesions on each leaf. Phytotoxicity expressed as growth reduction was observed on some of the plants in association with disease control.

Erysiphe cichoracearum = assay: Cucumber powdery mildew control on sprayed cucumber seedlings (Example 80); conditions: 100 ppm spray, day before inoculation; for pest or weed control at 100 ppm: Golovinomyces cichoracearum, 168 h
Method: These suspensions were sprayed to the point of run-off, on cucumber seedlings. The following day, the plants were inoculated with a spore suspension of the fungus Erysiphe cichoracearum, causal agent of cucumber powdery mildew, and incubated in a growth room for 7 days. Disease ratings were then made. Treated plants from successful treatments had little or no powdery mildew in contrast to untreated plants which were covered with powdery mildew. Phytotoxicity in the form of growth reduction or hormonal effects was observed on some of the plants in association with disease control.

For C[Si](C)(Cn1cncn1)c1ccccc1-c1ccccc1 [(1,1'-Biphenyl-2-yl)dimethyl(1H-1,2,4-triazol-1-ylmethyl)silane], the pest or weed control at 100 ppm (Cercospora arachidicola) was 100%, the pest or weed control at 100 ppm (Venturia inaequalis) was 60% and the pest or weed control at 100 ppm [1] was 0%. The pest or weed control at 100 ppm (Pyricularia oryzae) was 90%, the pest or weed control at 100 ppm (Rhizoctonia solani) was 0% and the pest or weed control at 100 ppm (Phytophthora infestans) was 50%. For the same compound, the pest or weed control at 100 ppm (Helminthosporium maydis) was 90% and the pest or weed control at 100 ppm (Erysiphe cichoracearum) was 90%.
C[Si](Cn1cncn1)(c1ccc(F)cc1)c1ccc(-c2ccccc2)cc1 (stereo not shown) [(1,1'-Biphenyl-4-yl)(4-fluorophenyl)methyl(1H-1,2,4-triazol-1-ylmethyl)silane] gave a pest or weed control at 100 ppm (Cercospora arachidicola) of 100%, a pest or weed control at 100 ppm (Venturia inaequalis) of 100% and a pest or weed control at 100 ppm [1] of 100%. For the same compound, the pest or weed control at 100 ppm (Rhizoctonia solani) was 0%, the pest or weed control at 100 ppm (Phytophthora infestans) was 0% and the pest or weed control at 100 ppm (Helminthosporium maydis) was 80%. It also gave a pest or weed control at 100 ppm (Erysiphe cichoracearum) of 100%.
With CC(C)O[Si](C)(Cn1cncn1)c1ccc(F)cc1 (stereo not shown) [(4-Fluorophenyl)methyl(2-propoxy)(1H-1,2,4-triazol-1-ylmethyl)silane] the pest or weed control at 100 ppm (Helminthosporium maydis) was 0% and the pest or weed control at 100 ppm (Erysiphe cichoracearum) was 100%.
With CC(n1cncn1)[Si](C)(c1ccc(F)cc1)c1ccc(F)cc1 (stereo not shown) [bis(4-Fluorophenyl)methyl[1-(1H-1,2,4-triazol-1-yl)ethyl]silane] the pest or weed control at 100 ppm (Cercospora arachidicola) was 100%, the pest or weed control at 100 ppm (Venturia inaequalis) was 100% and the pest or weed control at 100 ppm [1] was 100%. For the same compound, the pest or weed control at 100 ppm (Pyricularia oryzae) was 0%, the pest or weed control at 100 ppm (Rhizoctonia solani) was 80% and the pest or weed control at 100 ppm (Phytophthora infestans) was 0%. The pest or weed control at 100 ppm (Erysiphe cichoracearum) was 100%.
In the case of C[Si](Cn1cncn1)(c1ccc(F)cc1)c1ccc(F)cc1.[Cl][Cu] [[bis(4-Fluorophenyl)]methyl(1H-1,2,4-triazol-1-ylmethyl)silane, 1:1 complex with cuprous chloride], the “% Control Peanut Easly Leafspot” value (Cercospora arachidicola) is reported as 100%, the “% Control Wheat Rust” value [1] is reported as 90% and the “% Control of Rice Blast” value (Pyricularia oryzae) is reported as 90%. For the same compound, the “% Control of Rice Sheath Blight” value (Rhizoctonia solani) was 90%, the “% Control of Tomato Late Blight” value (Phytophthora infestans) was 0% and the “% Control of Southern Corn Leaf Blight” value (Helminthosporium maydis) was 0%. The “% Control Cucumber Powdery Mildew” value (Erysiphe cichoracearum) was 100%.
For “2:1 complex of [bis(4-Fluorophenyl)]methyl(1H-1,2,4-triazol-1-ylmethyl)silane and Curpic Chloride”, the “% Control Peanut Easly Leafspot” value (Cercospora arachidicola) was 100%, the “% Control Wheat Rust” value [1] was 100% and the “% Control of Rice Blast” value (Pyricularia oryzae) was 100%. The “% Control of Rice Sheath Blight” value (Rhizoctonia solani) was 0%, the “% Control of Tomato Late Blight” value (Phytophthora infestans) was 40% and the “% Control of Southern Corn Leaf Blight” value (Helminthosporium maydis) was 0%. For the same compound, the “% Control Cucumber Powdery Mildew” value (Erysiphe cichoracearum) was 100%.
With C[Si](C)(Cn1cncn1)c1ccc(-c2ccccc2)cc1 [(1,1'-Biphenyl-4-yl)dimethyl(1H--1,2,4-triazol-1-ylmethyl)si] [4-Dodecylbenzenesulfonate Salt of (1,1'-Biphenyl-4-yl)dimethyl(1H-1,2,4-triazol-1-ylmethyl)silane] the “% Control of Southern Corn Leaf Blight” value (Helminthosporium maydis) was 100%.
CC(C)O[Si](Cn1cncn1)(OC(C)C)c1ccccc1 [Phenylbis(2-propoxy)(1H-1,2,4-triazol-1-ylmethyl)silane] was tested, and the pest or weed control at 100 ppm (Cercospora arachidicola) was 0%, the pest or weed control at 100 ppm (Venturia inaequalis) was 0% and the pest or weed control at 100 ppm [1] was 0%. It also gave a pest or weed control at 100 ppm (Rhizoctonia solani) of 0%, a pest or weed control at 100 ppm (Phytophthora infestans) of 0% and a pest or weed control at 100 ppm (Helminthosporium maydis) of 0%. It also gave a pest or weed control at 100 ppm (Erysiphe cichoracearum) of 100%.
Work on CC(C)(C)O[Si](Cn1cncn1)(c1ccc(F)cc1)c1ccc(F)cc1 [(1,1-Dimethylethoxy)[bis(4-fluorophenyl)](1H-1,2,4-triazol-1-ylmethyl)silane] yielded a pest or weed control at 100 ppm (Helminthosporium maydis) of 0% and a pest or weed control at 100 ppm (Erysiphe cichoracearum) of 100%.
Compound C[Si](Cn1cncn1)(c1ccc(Cl)cc1)c1ccccc1Cl (stereo not shown) [2-Chlorophenyl(4-chlorophenyl)methyl(1H-1,2,4-triazol-1-ylmethyl)silane] has a pest or weed control at 100 ppm (Cercospora arachidicola) of 90%, a pest or weed control at 100 ppm (Venturia inaequalis) of 90% and a pest or weed control at 100 ppm [1] of 100%. For the same compound, the pest or weed control at 100 ppm (Rhizoctonia solani) was 70%, the pest or weed control at 100 ppm (Phytophthora infestans) was 0% and the pest or weed control at 100 ppm (Helminthosporium maydis) was 60%. It also gave a pest or weed control at 100 ppm (Erysiphe cichoracearum) of 100%.
